# Laboratory results as given in patent publication EP0320006A2, “Uses of 1,4-dihydropyridines” (LABORATOIRES SYNTEX, priority 1987, dated 1989).
# Marks after values point to notes of the source that are not given here.
# Assays:
# [1] = tested on: Male CD1 mice; assay: Anticonvulsant activity against pentylenetetrazole (PTZ) induced seizures; assay type: in vivo; settings: for % Clonic: incidence of clonic seizures; for % Tonic: incidence of tonic seizures
# Method: The amount of test compound needed to prevent convulsions induced by a fixed amount of pentylenetetrazol can then be determined.
# (A) Male CD1 mice (Charles River) are randomly divided into groups of at least 20, and treated with 500 µg/Kg of (S,RS)-2,6-dimethyl-3-carbomethoxy-4-(3-nitrophenyl)-5-(3-[4-(2-tetrahydropyran-2-yloxyethyl)-phenoxy]propoxycarbonyl)-1,4-dihydropyridine (the compound is dissolved in 0.1 mL of ethanol and diluted with 99.9 mL saline and injected intraperitoneally) before subcutaneous administration of 100 mg/Kg pentylenetetrazole ("PTZ", a known convulsant) under the following dosing schedules: (A) 15 minutes prior to PTZ administration; (B) 60 minutes prior to PTZ administration; and (C) b.i.d. for three days prior to PTZ administration, a further dose being given on a fourth day 15 minutes prior to PTZ administration. After PTZ administration, the mice are observed for at least 30 minutes, and the incidence of clonic seizures, tonic seizures, and death is noted. The experiment is terminated by pentobarbitone overdose.
# [2] = tested on: CA₁ pyramidal cells in the hippocampus; assay: Neuroprotection from ischemic damage: delayed neuronal death after bilateral carotid occlusion; assay type: in vivo, Mongolian gerbils; settings: then B.I.D. three days post-ischemia
# Method: This experimental test is described in the literature by Kirino, T. Brain Research, 239, 57-69 (1982). A detailed description is set forth in Example 3.
# Mongolian gerbils of either sex (50-80 g) are treated with a test compound (or control) either intraperitoneally (IP) at 500 mg/kg 15 minutes prior to induction of ischemia followed by B.I.D. dosing for three days post-ischemia, or orally at 5 mg/kg twice daily for 3 out of 4 days and then 15 minutes prior to cerebral ischemia on the 4th day followed by B.I.D. dosing for three days post-ischemia. To facilitate induction of forebrain ischemia the animals are then anesthetized with halothane (5% in 30:70 oxygen:nitrous oxide) delivered by face mask. Following rapid induction, the halothane is decreased to 1.5-2% and maintained at that level for the remainder of the experiment. The left and right common carotid arteries are exposed in the paratracheal region through a ventral midline cervical skin incision and freed from the accompanying vagosympathetic nerve trunks. A loose ligature is placed around the arteries to facilitate identification at the time of occlusion.
# The carotid arteries are then bilaterally occluded for 5 minutes using microvascular clips (Ackland C-2-V, Weiss, London). Blood flow is then restored, the wound dusted with antibiotic powder (Cicatrin, Calmic Medical Division, The Wellcome Foundation Ltd., London), and sutured. The subjects are then caged individually and allowed food and water ad libitum. […]
# The extent of neuronal death is determined by counting microscopically (at 40x power) all normal and abnormal cells in five fields per hemisphere of the hippocampal CA₁ subfield from the paramedian area to its junction with CA₂ neurons. The field counts are then summed and the mean percentage of dead cells calculated (n=10 fields per brain). Statistical significance was calculated using the Student's t test for unpaired samples, with significance taken at p less than 0.05.
# [3] = tested on: dogs; assay: Toxicology: three-month oral dosing; assay type: in vivo
# [4] = schedule A: 500 µg/Kg intraperitoneally 15 minutes prior to PTZ 100 mg/Kg s.c.
# [5] = schedule B: 500 µg/Kg intraperitoneally 60 minutes prior to PTZ 100 mg/Kg s.c.
# [6] = schedule C: 500 µg/Kg intraperitoneally b.i.d. for three days, further dose on fourth day 15 minutes prior to PTZ 100 mg/Kg s.c.
compound,measurement,setting,value
"COC(=O)C1=C(C)NC(C)=C(C(=O)OCCCOc2ccc(CCOC3CCCCO3)cc2)[C@H]1c1cccc([N+](=O)[O-])c1 (mixture of isomers) [X, (S,RS)-2,6-dimethyl-3-carbomethoxy-4-(3-nitrophenyl)-5-[3-(4-[2-(tetrahydropyran-2-yloxy)ethyl]phenoxy)propoxycarbonyl]-1,4-dihydropyridine]",anticonvulsant activity,"[1]; PTZ test in mice, statement in words",demonstrates anticonvulsant activity
same,% Death,[1]; [4],38.1* %
same,% Clonic,[1]; [4],90.5%
same,% Tonic,[1]; [4],90.5%
same,% Death,[1]; [5],35* %
same,% Clonic,[1]; [5],80%
same,% Tonic,[1]; [5],40*** %
same,% Death,[1]; [6],60%
same,% Clonic,[1]; [6],65** %
same,% Tonic,[1]; [6],55%
same,Percentage abnormal neurone count,"[2]; intraperitoneal administration, PEG 300 + water, 500 mg/kg 15 minutes prior to ischemia, 5 minutes occlusion, counted at 72 hours",6.6 ± 0.8%
same,Percentage abnormal neurone count,"[2]; intraperitoneal administration, alcoholic vehicle, 500 mg/kg 15 minutes prior to ischemia, 5 minutes occlusion, counted at 72 hours",5.6 ± 0.3%
same,Percentage abnormal neurone count,"[2]; oral, PEG 300 + vehicle, 5 mg/kg twice daily 3 out of 4 days, 15 minutes prior to ischemia on 4th day",58.0 ± 5.0%
same,pathological change,[3]; oral dosing of dogs for three months at 1.5 and 10 mg/kg/day,did not produce any pathological change
same,urine analysis,"[3]; oral dosing of dogs for three months, all doses",normal
same,Ophthalmoscopy,"[3]; oral dosing of dogs for three months, all doses, throughout the study",remained normal
